According to patent US8431113B2, “Polymer conjugates” (Biocompatibles UK Limited, priority 2002, dated 2013):
≈ marks a conversion by molar mass, not a printed value.

Assay: Effect of polymer modification on drug solubility: maximum solubility in water at room temperature, compound added step-wise
Type: physicochemical
Details: unmodified base drug
Procedure: The polymer-modified compound was added step-wise to water to determine the maximum solubility at room temperature.

With `O=C(O)c1ccccc1O` [Salicylic Acid, salicylic acid] the “Solubility of Drug” value was 16 mM and the solubility (water) was 2200 µg/mL (≈ 15.9 mM).
